Measurements as given in patent publication US20250073255A1, “USE OF FA-TYPE LIPID COMPOUNDS IN PREPARATION OF NUCLEIC ACID DELIVERY REAGENT AND RELATED PRODUCT” (BEIJING BAISHIKANG PHARMACEUTICAL TECHNOLOGY (BSJPHARMA) …, priority 2021, published 2025).

Test system: C57BL/6 male mice
Assay: In vivo delivery study of lipid nucleic acid mixture (oral gavage, RT-qPCR of PGY-sRNA-26 in tissues)
Set-up: species or system mouse
Conditions: for oral delivery of single-stranded sRNA nucleic acids into mouse blood / oral delivery of single-stranded sRNA nucleic acids into mouse femur / oral delivery of single-stranded sRNA nucleic acids into mouse liver tissue / oral delivery of single-stranded sRNA nucleic acids into mouse brain tissue / oral delivery of single-stranded sRNA nucleic acids into mouse heart tissue / oral delivery of single-stranded sRNA nucleic acids into mouse intestinal tissue / oral delivery of single-stranded sRNA nucleic acids into mouse kidney tissue / oral delivery of single-stranded sRNA nucleic acids into mouse lung tissue / oral delivery of single-stranded sRNA nucleic acids into mouse pancreatic tissue / oral delivery of single-stranded sRNA nucleic acids into mouse spleen tissue / oral delivery of single-stranded sRNA nucleic acids into mouse stomach tissue: 100 μg lipid:10 nmol PGY-sRNA-26, sampled after 12 hours; for oral delivery of single-stranded sRNA nucleic acids into mouse heart tissue: vs free uptake group; for oral delivery of single-stranded sRNA nucleic acids into mouse intestinal tissue: intestine; for oral delivery of single-stranded sRNA nucleic acids into mouse pancreatic tissue: pancreas; for overall delivery efficacy: delivering nucleic acids into each tissue and blood tested: 100 μg lipid:10 nmol PGY-sRNA-26, all tissues and blood tested
How it was run: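 Lipid (100 μg) and 10 nmol 3'-methylated single-stranded PGY-sRNA-26 were heated at 90 °C for 15 min, then given by oral gavage to mice fasted 12 h. Controls were saline and free sRNA. Blood and tissues were taken at 12 h, and levels were measured by stem-loop RT-qPCR relative to U6.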

Compound	oral delivery of single-stranded sRNA nucleic acids into mouse blood	oral delivery of single-stranded sRNA nucleic acids into mouse femur	oral delivery of single-stranded sRNA nucleic acids into mouse liver tissue	oral delivery of single-stranded sRNA nucleic acids into mouse brain tissue	oral delivery of single-stranded sRNA nucleic acids into mouse heart tissue	oral delivery of single-stranded sRNA nucleic acids into mouse intestinal tissue	oral delivery of single-stranded sRNA nucleic acids into mouse kidney tissue	oral delivery of single-stranded sRNA nucleic acids into mouse lung tissue	oral delivery of single-stranded sRNA nucleic acids into mouse pancreatic tissue	oral delivery of single-stranded sRNA nucleic acids into mouse spleen tissue	oral delivery of single-stranded sRNA nucleic acids into mouse stomach tissue	overall delivery efficacy: delivering nucleic acids into each tissue and blood tested
C/C(=C\C(=O)O)C(=O)O [Lipid 606, (E)-2-methylbut-2-enedioic acid]	can effectively orally deliver	can effectively orally deliver	can effectively orally deliver									
CC/C=C\C/C=C\C/C=C\CCCCCCCC(=O)OCCCCCCCCCCCC [Lipid 805, dodecyl (9Z,12Z,15Z)-octadeca-9,12,15-trienoate]	can effectively orally deliver	can effectively orally deliver	can effectively orally deliver	can effectively orally deliver	can effectively orally deliver	can effectively orally deliver	can effectively orally deliver	can effectively orally deliver	can effectively orally deliver	can effectively orally deliver	can effectively orally deliver	
CCCCCCCCCCCCCC=O [Lipid 594]	can effectively orally deliver	can effectively orally deliver	can effectively orally deliver	can effectively orally deliver	can effectively orally deliver	can effectively orally deliver	can effectively orally deliver	can effectively orally deliver		can effectively orally deliver	can effectively orally deliver	best delivery efficacy
CC/C=C/CC1C(=O)CCC1CC(=O)OC (stereo not drawn) [Lipid 501]	can effectively orally deliver		can effectively orally deliver	can effectively orally deliver	can effectively orally deliver	can effectively orally deliver	can effectively orally deliver	can effectively orally deliver		can effectively orally deliver	can effectively orally deliver	best delivery efficacy
CCCCCC/C=C\CCCCCCCC(=O)OCCCCCCCCCCCCCCC [Lipid 821, pentadecyl (Z)-hexadec-9-enoate]	can effectively orally deliver	can effectively orally deliver	can effectively orally deliver	can effectively orally deliver	can effectively orally deliver	can effectively orally deliver	can effectively orally deliver	can effectively orally deliver	can effectively orally deliver	can effectively orally deliver	can effectively orally deliver	
CCCCCCCCCCCC(N)=O [Lipid 611, dodecanamide]		can effectively orally deliver								can effectively orally deliver	can effectively orally deliver	
CC/C=C\CC1C(=O)CCC1CC(=O)O (stereo not drawn) [Lipid 527]	can effectively orally deliver	can effectively orally deliver	can effectively orally deliver	can effectively orally deliver	can effectively orally deliver	can effectively orally deliver	can effectively orally deliver	can effectively orally deliver		can effectively orally deliver	can effectively orally deliver	best delivery efficacy
CC(CC(=O)O)C(=O)O (stereo not drawn) [Lipid 608, 2-methylbutanedioic acid]		can effectively orally deliver			can effectively orally deliver			can effectively orally deliver		can effectively orally deliver	can effectively orally deliver	
COc1cc(CNC(=O)CCCC/C=C/C(C)C)ccc1O [Lipid 537]	can effectively orally deliver	can effectively orally deliver	can effectively orally deliver	can effectively orally deliver	can effectively orally deliver	can effectively orally deliver	can effectively orally deliver	can effectively orally deliver		can effectively orally deliver	can effectively orally deliver	best delivery efficacy
CCCCCCCCCC(=O)OC/C=C(\C)CC/C=C(\C)CCC=C(C)C [Lipid 803, [(2E,6E)-3,7,11-trimethyldodeca-2,6,10-trienyl]decanoate]	can effectively orally deliver	can effectively orally deliver	can effectively orally deliver	can effectively orally deliver	can effectively orally deliver	can effectively orally deliver	can effectively orally deliver	can effectively orally deliver	can effectively orally deliver	can effectively orally deliver	can effectively orally deliver	best delivery efficacy
CCCCCCOC(=O)CCC [Lipid 614, hexyl butanoate]	can effectively orally deliver	can effectively orally deliver	can effectively orally deliver	can effectively orally deliver	can effectively orally deliver	can effectively orally deliver		can effectively orally deliver		can effectively orally deliver		
